From patent US20240246913A1, “2-CARBOXYL-INDOLE INHIBITORS OF METALLO-BETA-LACTAMASES” (Oxford University Innovation Limited, priority 2021, published 2024)

How the values were obtained:
[1] = Metabolic stability in human hepatocytes; assay type: in vitro ADME; conditions: cryopreserved human hepatocytes, 1 μM compound, 37° C., up to 90 min, read-out: Metabolic stability in hepatocytes, in vitro t1/2, Human
Description: (§1) Metabolic stability assays were performed in cryopreserved human and mouse hepatocytes. The hepatocytes were thawed and added to “Thawing media”, and centrifuged to pellet the hepatocytes. The cell pellet was taken up in Williams medium E (Invitrogen A1217601), the number of cells was calculated and adjusted to 1.0×10^6 cells/mi. The incubation was carried out on a heater-shaker at […], in a 24-well Picoplate (round bottom, PerkinElmer), using an incubation volume of […]. Thus, to obtain a final compound concentration of 1 μM, 0.7 μl of the 1 mM compound stock solution was pipetted to the wells of the plate. Reaction was initiated by adding 700 μl of cell suspension. Samples were incubated at 37° C. for […] and a zero sample was taken, i.e. 100 μl sample was removed to a 96-well plate and the reaction was quenched by adding 100 μl of 100% MeCN containing 50 nM Warfarin as an internal control. Consecutive samples were taken at time-points 5 min, 15 min, 30 min, 60 min, and 90 min. After finishing the experiment, samples were centrifuged at 3000 rpm for 15 min and before analysis by LC-MS/MS (Waters Corp, Milford, MA, USA).

[2] = Plasma protein binding, equilibrium dialysis, mouse plasma; assay type: in vitro ADME; conditions: pH 7.4, equilibrium dialysis (RED) 4 hours at 37° C., read-out: Plasma protein binding, fu, Mouse
Description: The fraction of unbound compound (fu) in plasma from human or other animal species was determined by equilibrium dialysis at 37° C. for 4 hours using the Rapid Equilibrium Dialysis (RED) device (ThermoFisher Scientific). The test compound at a concentration of 10 μM was added to plasma and dialyzed against isotonic phosphate buffer (67 mM, pH 7.4) over 4 hours at 37° C. After dialysis, compound concentrations in buffer and plasma were quantified by LC-MS/MS. In parallel the stability of the compound in plasma was determined by incubating drug-spiked plasma (10 μM) at 37° C. for 4 hours, meanwhile the control plasma sample was kept in the freezer. The concentration of the compound in both samples was quantified by LC-MS/MS (Waters Corp, Milford, MA, USA).

[3] = Plasma protein binding, equilibrium dialysis, human plasma; assay type: in vitro ADME; conditions: pH 7.4, equilibrium dialysis (RED) 4 hours at 37° C., read-out: Plasma protein binding, fu, Human
Outline: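 Compound at 10 μM in plasma dialysed against 67 mM phosphate buffer pH 7.4 for 4 h at 37° C. in RED device; unbound fraction from buffer and plasma levels by LC-MS/MS. Plasma stability checked in parallel over 4 h at 37° C. versus frozen control.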

VIM-1 = VIM-1 (Pseudomonas aeruginosa, UniProt A0A0F7KYQ8); assay: MBL inhibition, FC-5 fluorescence assay, VIM-1; assay type: biochemical; conditions: FC-5 cephalosporin substrate, ranges of obtained pIC50, read-out: pIC50 VIM-1 (converted)
Outline: (§2)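 Fluorescence read-out (380 nm excitation, 460 nm emission) tracks fluorophore liberated when each enzyme breaks down cephalosporin substrate FC-5. Initial rates across inhibitor concentrations, each run in quadruplicate on the plate, give normalized curves fitted with a variable Hill slope.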

IMP-1 = IMP-1 (Serratia marcescens, UniProt P52699); assay: MBL inhibition, FC-5 fluorescence assay, IMP-1; assay type: biochemical; conditions: FC-5 cephalosporin substrate, fluorescence; ranges of obtained pIC50; read-out: pIC50 IMP-1 (converted)
Outline: as §2

[4] = Metabolic stability in mouse hepatocytes; assay type: in vitro ADME; conditions: cryopreserved mouse hepatocytes, 1 μM compound, 37° C., up to 90 min, read-out: Metabolic stability in hepatocytes, in vitro t1/2, Mouse
Description: as §1

VIM-2 = VIM-2 (Escherichia coli, UniProt Q5U7L7); assay: MBL inhibition, FC-5 fluorescence assay, VIM-2; assay type: biochemical; conditions: FC-5 cephalosporin substrate, ranges of obtained pIC50, read-out: pIC50 VIM-2 (converted)
Outline: as §2

NDM-1 = NDM-1 (Klebsiella pneumoniae, UniProt C7C422); assay: MBL inhibition, FC-5 fluorescence assay, NDM-1; assay type: biochemical; conditions: FC-5 cephalosporin substrate, fluorescence; ranges of obtained pIC50; read-out: pIC50 NDM-1 (converted)
Outline: as §2

[5] = test system: Acinetobacter baumannii NDM-1; assay: Antibiotic susceptibility testing (MIC), AB NDM-1; assay type: cell-based; conditions: agar or broth dilution (CLSI/EUCAST)
Description: (§3) Antibiotic susceptibility testing was performed using the agar or broth dilution method, in line with the Clinical and Laboratory Standards Institute (CLSI) and European Committee on Antimicrobial Susceptibility Testing (EUCAST) requirements.

Escherichia coli NDM-1 = assay: Antibiotic susceptibility testing (MIC), EC NDM-1; assay type: cell-based; conditions: agar or broth dilution (CLSI/EUCAST)
Description: as §3

Escherichia coli NDM-7 = assay: Antibiotic susceptibility testing (MIC), EC NDM-7; assay type: cell-based; conditions: agar or broth dilution (CLSI/EUCAST)
Description: as §3

Sequence of IMP-1 (P52699 19-246, looked up, species assumed): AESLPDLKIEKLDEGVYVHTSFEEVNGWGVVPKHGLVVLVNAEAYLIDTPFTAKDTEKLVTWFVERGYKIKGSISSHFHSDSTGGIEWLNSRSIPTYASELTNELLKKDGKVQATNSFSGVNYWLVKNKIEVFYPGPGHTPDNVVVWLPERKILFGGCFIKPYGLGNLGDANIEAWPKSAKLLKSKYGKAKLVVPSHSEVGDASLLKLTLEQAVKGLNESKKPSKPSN
Sequence of NDM-1 (C7C422 29-270, looked up, species assumed): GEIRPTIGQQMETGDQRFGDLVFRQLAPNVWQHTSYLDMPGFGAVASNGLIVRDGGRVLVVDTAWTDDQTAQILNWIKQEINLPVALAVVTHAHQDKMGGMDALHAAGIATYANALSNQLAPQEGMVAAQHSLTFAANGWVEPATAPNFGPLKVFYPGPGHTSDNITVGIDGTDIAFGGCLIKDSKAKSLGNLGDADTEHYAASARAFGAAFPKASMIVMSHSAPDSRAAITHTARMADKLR

| SMILES | half-life at 1 μM [1] | fraction unbound at 4 h, 10 μM [2] | fraction unbound at 4 h, 10 μM [3] | IC50 (VIM-1) | IC50 (IMP-1) | half-life at 1 μM [4] | IC50 (VIM-2) | IC50 (NDM-1) | MIC values AB NDM-1 [5] | MIC values EC NDM-1 (Escherichia coli NDM-1) | MIC values EC NDM-7 (Escherichia coli NDM-7) |
| --- | --- | --- | --- | --- | --- | --- | --- | --- | --- | --- | --- |
| CC(NC(=O)[C@H]1CC[C@H](CN)CC1)c1cccc2c(-c3ccc(CS(C)(=O)=O)c(F)c3)c(C(=O)O)[nH]c12 (mixture of isomers) [IC-99, 7-[1-[[4-(Aminomethyl)cyclohexanecarbonyl]amino]ethyl]-3-[3-fluoro-4-(methylsulfonylmethyl)phenyl]-1H-indole-2-carboxylic acid] | > 6.67 h | 0.05 to 0.25 | 0.05 to 0.25 | > 10 nM | > 10 nM | > 6.67 h | < 0.1 nM | 1 to 10 nM |  |  |  |
| C[C@H](OCc1ccc(CN)cc1)c1cccc2c(-c3ccc(CS(C)(=O)=O)c(Cl)c3)c(C(=O)O)[nH]c12 (single isomer, unassigned) [IC-87] | > 6.67 h | 0.05 to 0.25 | 0.005 to 0.05 | 1 to 10 nM | 1 to 10 nM | < 2.5 h | 0.1 to 1 nM | < 0.1 nM |  |  |  |
| C[C@@H](OCc1ccc(CN)cc1)c1cccc2c(-c3ccc(CS(C)(=O)=O)c(Cl)c3)c(C(=O)O)[nH]c12 (single isomer, unassigned) [IC-88] | > 6.67 h | < 0.005 | 0.005 to 0.05 | > 10 nM | 1 to 10 nM | < 2.5 h | > 10 nM | 0.1 to 1 nM |  |  |  |
| C[C@@H](c1cccc2c(-c3ccc(NS(C)(=O)=O)c(C#N)c3)c(C(=O)O)[nH]c12)N1C[C@]2(C[C@@H](CN)C2)OC1=O [IC-16, 7-((1S)-1-(2-(aminomethyl)-6-oxo-5-oxa-7-azaspiro[3.4]octan-7-yl)ethyl)-3-(3-cyano-4-(methylsulfonamido)phenyl)-1H-indole-2-carboxylic acid] | > 6.67 h | 0.05 to 0.25 | 0.05 to 0.25 | 1 to 10 nM | > 10 nM | > 6.67 h | 0.1 to 1 nM | < 0.1 nM | B (B MIC values 2 ÷ 8) | A (A = MIC values ≤ 1) | A (A = MIC values ≤ 1) |
| C[C@@H](c1cccc2c(-c3c(F)cc(NS(C)(=O)=O)cc3F)c(C(=O)O)[nH]c12)n1cc(CN2CC(N)C2)oc1=O [IC-51, 7-[(1S)-1-{5-[(3-Aminoazetidin-1-yl)methyl]-2-oxo-2,3-dihydro-1,3-oxazol-3-yl}ethyl]-3-(2,6-difluoro-4-methanesulfonamidophenyl)-1H-indole-2-carboxylic acid] |  | 0.005 to 0.05 | 0.05 to 0.25 | > 10 nM | > 10 nM |  | 1 to 10 nM | 1 to 10 nM | C (C = MIC values > 8) | C (C = MIC values > 8) | B (B MIC values 2 ÷ 8) |
| C[C@@H](c1cccc2c(-c3ccc(NS(C)(=O)=O)c(C#N)c3)c(C(=O)O)[nH]c12)n1cc(CN2CC(N)C2)oc1=O [IC-55, 7-[(1S)-1-{5-[(3-aminoazetidin-1-yl)methyl]-2-oxo-2,3-dihydro-1,3-oxazol-3-yl}ethyl]-3-(3-cyano-4-methanesulfonamidophenyl)-1H-indole-2-carboxylic acid] | 2.5 to 6.67 h | 0.005 to 0.05 | 0.05 to 0.25 | > 10 nM | > 10 nM | 2.5 to 6.67 h | 0.1 to 1 nM | < 0.1 nM | B (B MIC values 2 ÷ 8) | B (B MIC values 2 ÷ 8) | B (B MIC values 2 ÷ 8) |
| C[C@@H](c1cccc2c(-c3ccc(CS(C)(=O)=O)c(F)c3)c(C(=O)O)[nH]c12)n1cc(CN2CC(C)(N)C2)oc1=O [IC-68, (S)-7-(1-(5-((3-amino-3-methylazetidin-1-yl)methyl)-2-oxooxazol-3(2H)-yl)ethyl)-3-(3-fluoro-4-((methylsulfonyl)methyl)phenyl)-1H-indole-2-carboxylic acid] | > 6.67 h |  |  | 1 to 10 nM | > 10 nM | > 6.67 h | 0.1 to 1 nM | < 0.1 nM | B (B MIC values 2 ÷ 8) | A (A = MIC values ≤ 1) | A (A = MIC values ≤ 1) |
| CC(OCc1ccc(CN)cc1)c1cccc2c(-c3ccc(NS(C)(=O)=O)c(C#N)c3)c(C(=O)O)[nH]c12 (centres unmarked) [IC-86, 7-(1-((4-(Aminomethyl)benzyl)oxy)ethyl)-3-(3-cyano-4-(methylsulfonamido)phenyl)-1H-indole-2-carboxylic acid] | > 6.67 h | 0.05 to 0.25 | 0.005 to 0.05 | > 10 nM | > 10 nM | < 2.5 h | 1 to 10 nM | < 0.1 nM |  |  |  |
| CC(OCC1CCNCC1)c1cccc2c(-c3ccc(CS(C)(=O)=O)c(F)c3)c(C(=O)O)[nH]c12 (centres unmarked) [IC-89, 3-(3-Fluoro-4-((methylsulfonyl)methyl)phenyl)-7-(1-(piperidin-4-ylmethoxy)ethyl)-1H-indole-2-carboxylic acid] | > 6.67 h | 0.05 to 0.25 | 0.05 to 0.25 | 1 to 10 nM | > 10 nM | > 6.67 h | 1 to 10 nM | 0.1 to 1 nM |  |  |  |
| CC(Oc1ccc(CN)cc1)c1cccc2c(-c3ccc(CS(C)(=O)=O)c(F)c3)c(C(=O)O)[nH]c12 (centres unmarked) [IC-92, 7-(1-(4-(Ammoniomethyl)phenoxy)ethyl)-3-(3-fluoro-4-((methylsulfonyl)methyl)phenyl)-1H-indole-2-carboxylate] | > 6.67 h | 0.005 to 0.05 | 0.05 to 0.25 | 1 to 10 nM | 1 to 10 nM | 2.5 to 6.67 h | 1 to 10 nM | 1 to 10 nM |  |  |  |
| CC(OC(=O)N1CCC(CN)CC1)c1cccc2c(-c3ccc(CS(C)(=O)=O)c(F)c3)c(C(=O)O)[nH]c12 (centres unmarked) [IC-95, 7-(1-((4-(Aminomethyl)piperidine-1-carbonyl)oxy)ethyl)-3-(3-fluoro-4-((methylsulfonyl)methyl)phenyl)-1H-indole-2-carboxylic acid] | > 6.67 h | 0.005 to 0.05 | 0.05 to 0.25 | > 10 nM | > 10 nM | > 6.67 h | 1 to 10 nM | 0.1 to 1 nM |  |  |  |
| CC(c1cccc2c(-c3ccc(CS(C)(=O)=O)c(F)c3)c(C(=O)O)[nH]c12)N(C)C(=O)c1ccc(CN)cc1 (centres unmarked) [IC-97, 7-(1-(4-(Aminomethyl)-N-methylbenzamido)ethyl)-3-(3-fluoro-4-((methylsulfonyl)methyl)phenyl)-1H-indole-2-carboxylic acid] | > 6.67 h | 0.05 to 0.25 | 0.05 to 0.25 | > 10 nM | > 10 nM | < 2.5 h | 1 to 10 nM | 1 to 10 nM |  |  |  |
